Results: ChEMBL document CHEMBL1641362, “Inhibition of P-glycoprotein-mediated Multidrug Resistance (MDR) by N,N-bis(cyclohexanol)amine aryl esters: further restriction of molecular flexibility maintains high potency and efficacy” (Bioorg Med Chem Lett, 2011)

test: Inhibition of Pgp-mediated multidrug resistance in doxorubicin-resistant human K562 cells assessed as drug level required for 50% increase in nuclear concentration of pirarubicin by fluorescence assay; format: cell-based; conditions: read-out: I50

Row | Structure (SMILES) | IC50 [nM]
1 | COc1cc(CCC(=O)O[C@H]2CC[C@H](N(C)[C@H]3CC[C@@H](OC(=O)c4cc(OC)c(OC)c(OC)c4)CC3)CC2)cc(OC)c1OC (mixture of isomers) | 630
2 | COc1cc(CCC(=O)O[C@H]2CC[C@@H](N(C)[C@H]3CC[C@H](OC(=O)c4cc(OC)c(OC)c(OC)c4)CC3)CC2)cc(OC)c1OC (mixture of isomers) | 350
3 | COc1cc(CCC(=O)O[C@H]2CC[C@@H](N(C)[C@H]3CC[C@@H](OC(=O)c4cc(OC)c(OC)c(OC)c4)CC3)CC2)cc(OC)c1OC | 1100
4 | COc1cc(CCC(=O)O[C@H]2CC[C@H](N(C)[C@H]3CC[C@H](OC(=O)c4cc(OC)c(OC)c(OC)c4)CC3)CC2)cc(OC)c1OC (mixture of isomers) | 610
5 | COc1cc(/C=C/C(=O)O[C@H]2CC[C@H](N(C)[C@H]3CC[C@@H](OC(=O)c4cc(OC)c(OC)c(OC)c4)CC3)CC2)cc(OC)c1OC (mixture of isomers) | 92

Now those with a lower IC50, led by results:

Row | IC50 [nM] | Structure (SMILES)
6 | 70 | COc1cc(C#CC(=O)O[C@H]2CC[C@H](N(C)[C@H]3CC[C@H](OC(=O)c4cc(OC)c(OC)c(OC)c4)CC3)CC2)cc(OC)c1OC
7 | 20 | COc1cc(C#CC(=O)O[C@H]2CC[C@@H](N(C)[C@H]3CC[C@H](OC(=O)c4cc(OC)c(OC)c(OC)c4)CC3)CC2)cc(OC)c1OC (mixture of isomers)
8 | 70 | COc1cc(C#CC(=O)O[C@H]2CC[C@@H](N(C)[C@H]3CC[C@@H](OC(=O)c4cc(OC)c(OC)c(OC)c4)CC3)CC2)cc(OC)c1OC (mixture of isomers)
9 | 80 | COc1cc(C#CC(=O)O[C@H]2CC[C@H](N(C)[C@H]3CC[C@@H](OC(=O)c4cc(OC)c(OC)c(OC)c4)CC3)CC2)cc(OC)c1OC (mixture of isomers)
